The text below walks through data of patent publication US20240252549A1, “COMPOSITIONS AND METHODS TO TRANSFECT, TEST, AND TREAT SKIN CELLS” (The Regents of the University of Michigan, priority 2021, published 2024).

In one assay the test system is IFNK. As to the kind of experiment: IFNK mRNA expression in keratinocytes (qRT-PCR). The class given is cell-based, human. Conditions: all KO KCs treated, FIG. 3B. The method, then: (§1) Immortalized keratinocyte cell line, N/TERT1, was used with permission for generation of knock-out (KO) cell lines using non-homologous end joining via CRISPR/Cas9. […] N/TERTs were grown in Keratinocyte-SFM medium (ThermoFisher #17005-042) supplemented with 30 μg/ml bovine pituitary extract, 0.2 ng/ml epidermal growth factor, and 0.3 mM calcium chloride (2).
(§2) CRISPR KO KCs were generated as previously described (3). In brief, Single-guide RNA (sgRNA) target sequence was developed using a web interface for CRISPR design (https://portals.broadinstitute.org/gpp/public/analysis-tools/sgrna-design). Synthetic sgRNA target sequences were inserted into a cloning backbone, pSpCas9 (BB)-2A-GFP (PX458) (Addgene plasmid #48138) and then cloned into competent E. coli (ThermoFisher #C737303). Proper insertion was validated by Sanger sequencing. […] Cells were then genotyped and analyzed by Sanger sequencing.
(§3) RNA extraction, qRT-PCR and RNA-Sequencing were performed following the protocol published earlier (3). […] We used STAR to align RNA-seq reads to the human genome, using annotations of GENCODE as gene model. HTSeq was used to quantify gene expression levels; normalization and differential expression analysis were performed by DESeq2.

The next assay has as its system MX1. As to the kind of experiment: MX1 (interferon-stimulated gene) mRNA expression in keratinocytes (qRT-PCR). The class given is cell-based, human. The note with it: all KO KCs treated, FIG. 7. The method, then: as §1, §2, §3
On the technique in general: In qPCR the cycle at which signal appears reflects the starting amount.

Entries after “also recorded” stand apart in the source; their conditions may differ.

On to `Nc1ncn([C@H]2C[C@H](O)[C@@H](CO)O2)c(=O)n1` [5-dAza-c], for which the “IFNK mRNA expression in CRISPR-cas9 generated KO keratinocytes after demethylating agent” value in the assay with IFNK is listed as “Reversal; also recorded: significant increase”. In the assay on MX1, the “MX1 mRNA expression in CRISPR-cas9 generated KO keratinocytes after demethylating agent” value is recorded as “significant increase”.
